In patent US20190374574A1, “COMPOSITION FOR THE TREATMENT OF GASTROINTESTINAL DISORDERS” (NEILOS S.R.L., priority 2017, published 2019):
Like-named read-outs stand apart in the source and are kept apart here.

Columns and labels:
[1] = test system: patients with lactose intolerance; conditions: cited from earlier work; for reduction in the hydrogen concentration compared to the placebo: p<0.001; for hydrogen concentration in expired air: placebo 51.46±16.12
[2] = test system: Male mice of the ICR strain; test: Diarrhoea induced by castor oil in mice; format: in vivo; conditions: oral; for effect on diarrhoea induced by castor oil (percentage of mice that exhibited diarrhoea at the second hour): 30 minutes before castor oil 0.2 ml/mouse, evaluated 2 hours after castor oil, vs control
Description: In the following tests, the effect of two formulations and their individual constituents was evaluated in order to determine a possible synergistic effect among the individual components on diarrhoea induced by castor oil.
Male mice of the ICR strain supplied by the company Charles River and weighing 20-25 g were used. The animals were housed in temperature-controlled rooms (temperature of 23±2° C., humidity of 50±2%, 12-hour light-dark cycles) and had free access to water and food, consisting of a standard diet supplied by the company Mucedola Mangimi (Settimo Milanese, Italy). All experiments were performed in observance of Legislative Decree no. 116 of 27 Jan. 1992 and according to the guidelines of the Council of the European Union (86/609/EEC and 2010/63/EU).
The technique of Borrelli et al. (Borrelli F, Capasso F, Capasso R, Ascione V, Aviello G, Longo R, Izzo A A (2006). “Effect of Boswellia serrata on intestinal motility in rodents: inhibition of diarrhoea without constipation” Br J Pharmacol 148:553-560) was used. In practical terms, the mice were fasted for a period of 12 hours and then isolated in individual cages provided with a mesh on the bottom, set 5 cm above a sheet of absorbent paper. This enabled inspection of the excreted faeces. 30 minutes after administration of the samples to be tested, the animals received 0.2 ml of castor oil by means of a gastric probe. The diarrhoea was evaluated 15 minutes after the administration of the cathartic agent and every 15 minutes until the second hour. […]
Two formulations (according to the invention) were evaluated, consisting, respectively, of activated charcoal, Carum carvi, papain, α-galactosidase and β-galactosidase (total formulation) and activated charcoal, Carum carvi and papain (partial formulation). […]
The results are expressed as the mean±standard error of the mean (S.E.M.). The difference between two means was evaluated by means of Student's t-test. […]

β-galactosidase
reduction in the hydrogen concentration compared to the placebo ([1]; group A: 3000 U of lactase added to milk 10 hours prior to administration): 77% | hydrogen concentration in expired air ([1]; group A: 3000 U of lactase added to milk 10 hours prior): 12.07±7.8 p.p.m. | reduction in the hydrogen concentration compared to the placebo ([1]; group B: 6000 U of lactase added to milk 5 minutes prior to ingestion): 73% | hydrogen concentration in expired air ([1]; group B: 6000 U of lactase added to milk 5 minutes prior): 13.97±7.99 p.p.m. | cumulative quantity of expired hydrogen vs group C (placebo) ([1]; groups A and B): significantly lower | effect on diarrhoea induced by castor oil (percentage of mice that exhibited diarrhoea at the second hour) [2]: not capable of modifying the cathartic effect of the castor oil

B1: Papain: Papain (CAS N. 9001-73-4), cysteine-protease from Carica papaya, activity greater than or equal to 2.5 FIP UI/mg (protein, UniProt P00784 134-345, looked up)
Papain: IPEYVDWRQKGAVTPVKNQGSCGSCWAFSAVVTIEGIIKIRTGNLNEYSEQELLDCDRRSYGCNGGYPWSALQLVAQYGIHYRNTYPYEGVQRYCRSREKGPYAAKTDGVRQVQPYNEGALLYSIANQPVSVVLEAAGKDFQLYRGGIFVGPCGNKVDHAVAAVGYGPNYILIKNSWGTGWGENGYIRIKRGTGNSYGVCGLYTSSFYPVKN
effect on diarrhoea induced by castor oil (percentage of mice that exhibited diarrhoea at the second hour) [2]: significantly reduced diarrhoea | dose at which the reduction of castor oil diarrhoea was significant ([2]; 2 hours after castor oil): 30 mg/kg
